Values quoted from earlier work in US20060045850A1, “Nasal delivery of cyclodextrin complexes of anti-inflammatory steroids” (QPharma, LLC, priority 2004, published 2006).

absorption when administered orally (administered orally): no absorption
absolute bio-availability (from the suspension formulation, administered nasally): less than 2.0%
Structure (SMILES): CCC(=O)O[C@]1(C(=O)SCF)[C@H](C)C[C@H]2[C@@H]3C[C@H](F)C4=CC(=O)C=C[C@]4(C)[C@@]3(F)[C@@H](O)C[C@@]21C [Fluticasone]
